Data on 40 compounds can be found in patent US20060089395A1, “Nf-kb activation inhibitors” (priority 2002, published 2006).

In the assay the test system is NF-κ B. The assay is described as follows: Inhibitory activity of NF-κ B activation, luciferase reporter assay in HepG2 under TNF-α stimulation. Conditions: HepG2, TNF-α (40 ng/ml), 4 hours; for inhibition at 1 µg/mL / inhibition at 10 µg/mL: Homo sapiens; for inhibition at 1 µg/mL / Inhibitory Ratio of NF-κ B Activation(%) Drug Concentration 1 μg/mL: 1 μg/mL; for inhibition at 1 µg/mL: read-out: Inhibitory Ratio of NF-κ B Activation(%) Drug Concentration 1 μg/mL; for inhibition at 10 µg/mL / Inhibitory Ratio of NF-κ B Activation(%) Drug Concentration 10 μg/mL: 10 μg/mL; for inhibition at 10 µg/mL: read-out: Inhibitory Ratio of NF-κ B Activation(%) Drug Concentration 10 μg/mL. Type of assay: cell-based, human. Summed up:
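HepG2 cells transiently transfected with a luciferase reporter driven by five tandem NF-κB binding sites, then incubated 6–24 h. Stimulated with TNF-α (40 ng/ml) with or without test compound for 4 h. Intracellular luciferase read by chemiluminescence; inhibition expressed relative to activity without compound.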

For the compound `CC(=O)c1sc(NC(=O)c2cc(Br)ccc2O)nc1-c1ccccc1` [Compound No. 214, 5-Bromo-N-(5-acetyl-4-phenylthiazol-2-yl)-2-hydroxybenzamide], the inhibition at 1 µg/mL worked out at 70.2% and the inhibition at 10 µg/mL stood at 95.9%.

As to `O=C(Nc1nc(-c2ccccc2)c(C(=O)c2ccccc2)s1)c1cc(Br)ccc1O` [Compound No. 215, 5-Bromo-N-(5-benzoyl-4-phenylthiazol-2-yl)-2-hydroxybenzamide], the inhibition at 1 µg/mL stood at 90.7% and the inhibition at 10 µg/mL was 97.3%.

On to `CCOC(=O)c1sc(NC(=O)c2cc(Br)ccc2O)nc1-c1ccccc1` [Compound No. 216, 2-(5-bromo-2-hydroxybenzoyl)amino-4-phenylthiazole-5-carboxylic acid ethyl ester], for which the inhibition at 1 µg/mL came out at 55.8% and the inhibition at 10 µg/mL came out at 82.8%.

Regarding `CCOC(=O)c1sc(NC(=O)c2cc(Cl)ccc2O)nc1-c1ccccc1` [Compound No. 218], the “Inhibitory Ratio of NF-κ B Activation(%) Drug Concentration 1 μg/mL” value is listed as 80.7% and the “Inhibitory Ratio of NF-κ B Activation(%) Drug Concentration 10 μg/mL” value was 94.2%.

On to `CCOC(=O)c1sc(NC(=O)c2cc(Br)ccc2O)nc1-c1c(F)c(F)c(F)c(F)c1F` [Compound No. 219, Ethyl 2-(5-bromo-2-hydroxybenzoyl)amino-4-(pentafluorophenyl)thiazole-5-carboxylate], for which the inhibition at 1 µg/mL was found to be 82.2% and the inhibition at 10 µg/mL came to 96%.

`CNC(=O)c1sc(NC(=O)c2cc(Br)ccc2O)nc1-c1ccccc1` [Compound No. 220]: the “Inhibitory Ratio of NF-κ B Activation(%) Drug Concentration 1 μg/mL” value is 50.8% and the “Inhibitory Ratio of NF-κ B Activation(%) Drug Concentration 10 μg/mL” value is listed as 58.6%.

With `CCNC(=O)c1sc(NC(=O)c2cc(Br)ccc2O)nc1-c1ccccc1` [Compound No. 221], the “Inhibitory Ratio of NF-κ B Activation(%) Drug Concentration 1 μg/mL” value stood at 51.9% and the “Inhibitory Ratio of NF-κ B Activation(%) Drug Concentration 10 μg/mL” value was 84.0%.

With `CC(C)NC(=O)c1sc(NC(=O)c2cc(Br)ccc2O)nc1-c1ccccc1` [Compound No. 222], the “Inhibitory Ratio of NF-κ B Activation(%) Drug Concentration 1 μg/mL” value was found to be 49.6% and the “Inhibitory Ratio of NF-κ B Activation(%) Drug Concentration 10 μg/mL” value was found to be 91.3%.

In the case of `O=C(Nc1nc(-c2ccccc2)c(C(=O)NCCc2ccccc2)s1)c1cc(Br)ccc1O` [Compound No. 223], the “Inhibitory Ratio of NF-κ B Activation(%) Drug Concentration 1 μg/mL” value is given as 33.3% and the “Inhibitory Ratio of NF-κ B Activation(%) Drug Concentration 10 μg/mL” value was 60.4%.

Take `CCOC(=O)c1sc(NC(=O)c2cc(Br)ccc2O)nc1C(F)(F)F` [Compound No. 224]: the “Inhibitory Ratio of NF-κ B Activation(%) Drug Concentration 1 μg/mL” value is on record as 87.6% and the “Inhibitory Ratio of NF-κ B Activation(%) Drug Concentration 10 μg/mL” value was determined as 96.5%.

With `CCOC(=O)c1sc(NC(=O)c2cc(-c3ccc(F)cc3)ccc2O)nc1-c1ccccc1` [Compound No. 226], the “Inhibitory Ratio of NF-κ B Activation(%) Drug Concentration 1 μg/mL” value came out at 45.0% and the “Inhibitory Ratio of NF-κ B Activation(%) Drug Concentration 10 μg/mL” value is 85.8%.

In the case of `CCOC(=O)c1sc(NC(=O)c2cc(-c3ccc(F)cc3F)ccc2O)nc1-c1ccccc1` [Compound No. 227], the “Inhibitory Ratio of NF-κ B Activation(%) Drug Concentration 1 μg/mL” value was 31.8% and the “Inhibitory Ratio of NF-κ B Activation(%) Drug Concentration 10 μg/mL” value is recorded as 90.3%.

`CCOC(=O)c1sc(NC(=O)c2cc(-n3cccc3)ccc2O)nc1-c1ccccc1` [Compound No. 229]: the “Inhibitory Ratio of NF-κ B Activation(%) Drug Concentration 1 μg/mL” value is on record as 74.0% and the “Inhibitory Ratio of NF-κ B Activation(%) Drug Concentration 10 μg/mL” value is reported as 90.1%.

With `CCOC(=O)c1sc(NC(=O)c2cc(-c3cccs3)ccc2O)nc1-c1ccccc1` [Compound No. 230, 2-[2-Hydroxy-5-(2-thienyl)benzoyl]amino-4-phenylthiazole-5-carboxylic acid ethyl ester], the inhibition at 1 µg/mL stood at 40.8% and the inhibition at 10 µg/mL stood at 84.8%.

`O=C(Nc1nc(-c2cc(C(F)(F)F)cc(C(F)(F)F)c2)cs1)c1cc(Cl)ccc1O` [Compound No. 231, 5-Chloro-2-hydroxy-N-{4-[3,5-bis(trifluoromethyl)phenyl]thiazol-2-yl}benzamide]: the inhibition at 1 µg/mL amounted to 95.9% and the inhibition at 10 µg/mL was determined as 94.5%.

`CCOC(=O)c1c(NC(=O)c2cc(Cl)ccc2O)sc2c1CCCC2` [Compound No. 232]: the “Inhibitory Ratio of NF-κ B Activation(%) Drug Concentration 1 μg/mL” value is recorded as 88.2% and the “Inhibitory Ratio of NF-κ B Activation(%) Drug Concentration 10 μg/mL” value was found to be 85.4%.

Regarding `O=C(Nc1cc(-c2ccccc2)[nH]n1)c1cc(Br)ccc1O` [Compound No. 233], the “Inhibitory Ratio of NF-κ B Activation(%) Drug Concentration 1 μg/mL” value was 26.6% and the “Inhibitory Ratio of NF-κ B Activation(%) Drug Concentration 10 μg/mL” value amounted to 84.7%.

Regarding `CCc1nc(NC(=O)c2cc(Br)ccc2O)oc1CC` [Compound No. 234, 5-Bromo-N-(4,5-diethyloxazol-2-yl)-2-hydroxybenzamide], the inhibition at 1 µg/mL amounted to 29.1% and the inhibition at 10 µg/mL is 63.1%.

For `O=C(Nc1nc(-c2ccccc2)c(-c2ccccc2)o1)c1cc(Br)ccc1O` [Compound No. 235], the “Inhibitory Ratio of NF-κ B Activation(%) Drug Concentration 10 μg/mL” value turned out to be 81.8%.

For `O=C(Nc1nc(-c2ccco2)c(-c2ccco2)o1)c1cc(Br)ccc1O` [Compound No. 236, 5-Bromo-N-[4,5-bis(furan-2-yl)oxazol-2-yl]-2-hydroxybenzamide], the inhibition at 1 µg/mL was determined as 21.4% and the inhibition at 10 µg/mL amounted to 56%.

In the case of `O=C(Nc1nnc(C(F)(F)F)s1)c1ccccc1O` [Compound No. 237, 2-Hydroxy-N-(5-trifluoromethyl-1,3,4-thiadiazol-2-yl)benzamide], the inhibition at 10 µg/mL was 81.9%.

Turning to `O=C(Nc1nnc(C(F)(F)F)s1)c1cc(Br)ccc1O` [Compound No. 238], the “Inhibitory Ratio of NF-κ B Activation(%) Drug Concentration 1 μg/mL” value is reported as 26.1% and the “Inhibitory Ratio of NF-κ B Activation(%) Drug Concentration 10 μg/mL” value is 90.3%.

As to `COc1cc(Cl)nc(NC(=O)c2cc(Cl)ccc2O)n1` [Compound No. 241], the “Inhibitory Ratio of NF-κ B Activation(%) Drug Concentration 1 μg/mL” value was found to be 25.5% and the “Inhibitory Ratio of NF-κ B Activation(%) Drug Concentration 10 μg/mL” value is reported as 78.9%.

For the compound `O=C(Nc1cnc2ccccc2c1)c1cc(Cl)ccc1O` [Compound No. 242], the “Inhibitory Ratio of NF-κ B Activation(%) Drug Concentration 10 μg/mL” value was 85.7%.

Regarding `O=C(Nc1cccc(Br)n1)c1cc(Cl)ccc1O` [Compound No. 243], the “Inhibitory Ratio of NF-κ B Activation(%) Drug Concentration 1 μg/mL” value is given as 84.2% and the “Inhibitory Ratio of NF-κ B Activation(%) Drug Concentration 10 μg/mL” value is given as 95.1%.

For the compound `O=C(Nc1cc(C(F)(F)F)cc(C(F)(F)F)c1)c1cc(S(=O)(=O)Nc2cc(C(F)(F)F)cc(C(F)(F)F)c2)ccc1Cl` [Compound No. 247], the “Inhibitory Ratio of NF-κ B Activation(%) Drug Concentration 10 μg/mL” value is reported as above 99.9%.

On to `O=C(Nc1cc(C(F)(F)F)cc(C(F)(F)F)c1)c1cccc(-c2ccccc2)c1O` [Compound No. 249, N-[3,5-bis(trifluoromethyl)phenyl]-2-hydroxy-3-phenylbenzamide], for which the inhibition at 1 µg/mL was 86.6% and the inhibition at 10 µg/mL worked out at 90.7%.

For the compound `O=C(Nc1cc(C(F)(F)F)cc(C(F)(F)F)c1)c1ccc(F)cc1O` [Compound No. 250], the “Inhibitory Ratio of NF-κ B Activation(%) Drug Concentration 1 μg/mL” value was 94.2% and the “Inhibitory Ratio of NF-κ B Activation(%) Drug Concentration 10 μg/mL” value was found to be 95.4%.

With `N#Cc1ccc(Oc2ccc(C(F)(F)F)cc2NC(=O)c2cc(Cl)ccc2O)cc1` [Compound No. 252], the “Inhibitory Ratio of NF-κ B Activation(%) Drug Concentration 1 μg/mL” value was 93.9% and the “Inhibitory Ratio of NF-κ B Activation(%) Drug Concentration 10 μg/mL” value came out at 96.3%.

Regarding `O=C(Nc1nc(-c2ccc(Cl)cc2Cl)cs1)c1cc(Cl)ccc1O` [Compound No. 255, 5-Chloro-2-hydroxy-N-[4-(2,4-dichlorophenyl)thiazol-2-yl]benzamide], the inhibition at 1 µg/mL was above 99.9%.

As for `CC(C)c1cccc(C(=O)Nc2cc(C(F)(F)F)cc(C(F)(F)F)c2)c1O` [Compound No. 256, N-[3,5-bis(trifluoromethyl)phenyl]-2-hydroxy-3-isopropylbenzamide], the inhibition at 1 µg/mL amounted to 92.1%.

`CC(C)c1cc(Br)cc(C(=O)Nc2cc(C(F)(F)F)cc(C(F)(F)F)c2)c1O` [Compound No. 257]: the “Inhibitory Ratio of NF-κ B Activation(%) Drug Concentration 1 μg/mL” value is listed as above 99.9%.

For the compound `Cc1cc(Br)cc(C(=O)Nc2cc(C(F)(F)F)cc(C(F)(F)F)c2)c1O` [Compound No. 258], the “Inhibitory Ratio of NF-κ B Activation(%) Drug Concentration 1 μg/mL” value is reported as above 99.9%.

Regarding `O=C(Nc1cc(C(F)(F)F)cc(C(F)(F)F)c1)c1cc(Br)cc(-c2ccccc2)c1O` [Compound No. 259], the “Inhibitory Ratio of NF-κ B Activation(%) Drug Concentration 1 μg/mL” value is listed as above 99.9%.

As to `O=C(Nc1nc(-c2ccc(Cl)c(Cl)c2)cs1)c1cc(Cl)ccc1O` [Compound No. 260, 5-Chloro-2-hydroxy-N-[4-(3,4-dichlorophenyl)thiazol-2-yl]benzamide], the inhibition at 1 µg/mL is above 99.9%.

As for `O=C(Nc1nc(-c2ccc(C(F)(F)F)cc2)cs1)c1cc(Cl)ccc1O` [Compound No. 261, 5-Chloro-2-hydroxy-N-{4-[4-(trifluoromethyl)phenyl]thiazol-2-yl}benzamide], the inhibition at 1 µg/mL was above 99.9%.

Regarding `O=C(Nc1cc(C(F)(F)F)cc(C(F)(F)F)c1)c1ccc(-c2ccccc2)cc1O` [Compound No. 262, N-[3,5-Bis(trifluoromethyl)phenyl]-2-hydroxy-4-phenylbenzamide], the inhibition at 1 µg/mL was above 99.9%.

In the case of `O=C(Nc1nc(-c2cc(F)ccc2F)cs1)c1cc(Cl)ccc1O` [Compound No. 263, 5-Chloro-2-hydroxy-N-[4-(2,5-difluorophenyl)thiazol-2-yl]benzamide], the inhibition at 1 µg/mL is above 99.9%.

With `COc1ccc(-c2csc(NC(=O)c3cc(Cl)ccc3O)n2)cc1` [Compound No. 264, 5-Chloro-2-hydroxy-N-[4-(4-methoxyphenyl)thiazol-2-yl]benzamide], the inhibition at 1 µg/mL was above 99.9%.

For `O=C(Nc1nc(-c2cccc(C(F)(F)F)c2)cs1)c1cc(Cl)ccc1O` [Compound No. 265, 5-Chloro-2-hydroxy-N-{4-[3-(trifluoromethyl)phenyl]thiazol-2-yl}benzamide], the inhibition at 1 µg/mL is above 99.9%.
